Consider 12 molecules from patent US7329757B2 (Bayer Aktiengesellschaft, priority 2000, dated 2008).

The test system of series [1] is weeds. The series can be described thus: Pre-emergence test (Example A), damage to weeds. The series is classed as in vivo. The note with it: soil sprayed 24 hours after sowing, rated after three weeks. The protocol: (§1) To produce a suitable preparation of active compound, 1 part by weight of active compound is mixed with the stated amount of solvent, the stated amount of emulsifier is added and the concentrate is diluted with water to the desired concentration.
Seeds of the test plants are sown in normal soil. After 24 hours, the soil is sprayed with the preparation of active compound such that the particular amount of active compound desired is applied per unit area. The concentration of active compound in the spray liquors is chosen so that the particular amount of active compound desired is applied in 1000 litres of water per hectare.
After three weeks, the degree of damage to the plants is rated in % damage in comparison to the development of the untreated control.

Series [2] has as its system weeds. Nature of the series: Post-emergence test (Example B), damage to weeds. The series is classed as in vivo. The note with it: test plants of 5-15 cm sprayed, rated after three weeks. The protocol: as §1
Test plants of a height of 5-15 cm are sprayed with the preparation of active compound such that the particular amounts of active compound desired are applied per unit area. The concentration of the spray liquor is chosen so that the particular amounts of active compound desired are applied in 1000 l of water/ha.
After three weeks, the degree of damage to the plants is rated in % damage in comparison to the development of the untreated controls.

The nature of series [3]: logP determination by HPLC on reversed-phase column (C 18), EEC Directive 79/831 Annex V.A8. Type of series: physicochemical. The protocol: The calibration was carried out using unbranched alkan-2-ones (having 3 to 16 carbon atoms) with known logP values (determination of the logP values by the retention times using linear interpolation between two successive alkanones).

The term melting point denotes the temperature of the solid-liquid transition. A word on the chromatographic logP: it is a lipophilicity value derived from retention on a column. What is called logP is a log measure of how a compound divides between an organic and an aqueous phase. A high value points to a more lipophilic compound.

With `Cc1cc/c(=N\C#N)n(-c2cccc(C(F)(F)F)c2)c1` [Example 3, 5-methyl-1-(3-trifluoromethyl-phenyl)-2(1H)-pyridinylidenecyanamide], the melting point was determined as 165 °C. The “activity against weeds (degree of damage)” value (shortened to “activity against weeds”) in series [1] is “strong activity against weeds”. The “activity against weeds” value in series [2] is listed as “strong activity against weeds”.

In turn, `Cc1cc/c(=N\c2nnc(C(F)(F)F)s2)n(-c2cccc(C(F)(F)F)c2)c1` [Example 6, N-(5-trifluoromethyl-1,3,4-thiadiazol-2-yl)-5-methyl-1-(3-trifluoromethyl-phenyl)-2(1H)-pyridinimine] gave a melting point of 179 °C.

For the molecule `Cc1cc/c(=N\C(=O)C(F)(F)F)n(-c2cccc(C(F)(F)F)c2)c1` [Example 1, 2,2,2-trifluoro-N-[5-methyl-1-(3-trifluoromethylphenyl)-2(1H)-pyridinylidene]-acetamide], the melting point was 115 °C. Also, the “activity against weeds” value in series [1] was “strong activity against weeds”. In addition, the “activity against weeds” value in series [2] is “strong activity against weeds”.

Molecule `Cc1ccc(=O)n(-c2cccc(C(F)(F)F)c2)c1` [IX-1, 5-methyl-1-(3-trifluoromethyl-phenyl)-2(1H)-pyridinone] returned a melting point of 95 °C. Further, the “activity against weeds” value in series [1] was “strong activity against weeds”. In series [2], the “activity against weeds” value is “strong activity against weeds”.

For `Cc1cccn(-c2cccc(C(F)(F)F)c2)c1=O` [IX-34, 3-methyl-1-(3-trifluoromethyl-phenyl)-2(1H)-pyridinone], the melting point was 122 °C.

In series [3] (reversed-phase HPLC column (C 18); labelled a): acidic range, 0.1% aqueous phosphoric acid/acetonitrile gradient, 43° C.), `O=c1ccc(C(F)(F)F)cn1-c1cccc(C(F)(F)F)c1` [IX-35, 5-trifluoromethyl-1-(3-trifluoromethyl-phenyl)-2(1H)-pyridinone] came in with a chromatographic logP of 2.78.

Molecule “5-methyl-1-(2,3-difluoromethylenedioxy-phenyl)-2(1H)-pyridinone [IX-28]” returned a logP in series [3] of 3.95.

Molecule `Cc1ccc(S(=O)(=O)/N=c2\ccc(C)cn2-c2cccc(C(F)(F)F)c2)cc1` [Example 7, 4-methyl-N-[5-methyl-1-(3-trifluoromethylphenyl)-2(1H)-pyridinylidene]-benzenesulphonamide] gave a melting point of 174 °C.

Consider `Cc1cc/c(=N\C2CC2)n(-c2cccc(C(F)(F)F)c2)c1` [Example 8, N-cyclopropyl-5-methyl-1-(3-trifluoromethylphenyl)-2(1H)-pyridineimine], for which the chromatographic logP in series [3] (reversed-phase HPLC column (C 18), HPLC, range (acidic/neutral) not labelled) amounted to 1.51.

Consider `CNC(=O)/N=c1\ccc(C)cn1-c1cccc(C(F)(F)F)c1` [Example 4, N-methyl-N′-[5-methyl-1-(3-trifluoromethylphenyl)-2(1H)-pyridinylidene]-urea], for which the melting point was determined as 114 °C.

With `Cc1ccc(=NC(=O)OC(C)C)n(-c2cccc(C(F)(F)F)c2)c1` [Example 2], the “activity against weeds” value in series [1] is “strong activity against weeds”. Further, in series [3] (HPLC, range (acidic/neutral) not labelled), the chromatographic logP amounted to 1.59.

In turn, `Cc1ccc(=NS(=O)(=O)C(F)(F)F)n(-c2cccc(C(F)(F)F)c2)c1` [Example 5, N-[5-methyl-1-(3-trifluoromethyl-phenyl)-2(1H)-pyridinylidene]-trifluoromethanesulphonamide] displayed a melting point of 206 °C.
